This is an account of results in PMC4332668, “Characterization of a Novel PQQ-Dependent Quinohemoprotein Pyranose Dehydrogenase from Coprinopsis cinerea Classified into Auxiliary Activities Family 12 in Carbohydrate-Active Enzymes” (PLoS ONE, 2015).

This assay has as its target T1, DHPDH (Coprinopsis cinerea, UniProt A8P0V4).
T1 construct: gene PDH; isolated PQQ (AA12) dehydrogenase domain, residues 240-649, recombinant from Pichia pastoris, purified as apo-form
T1 sequence (A8P0V4 240-649): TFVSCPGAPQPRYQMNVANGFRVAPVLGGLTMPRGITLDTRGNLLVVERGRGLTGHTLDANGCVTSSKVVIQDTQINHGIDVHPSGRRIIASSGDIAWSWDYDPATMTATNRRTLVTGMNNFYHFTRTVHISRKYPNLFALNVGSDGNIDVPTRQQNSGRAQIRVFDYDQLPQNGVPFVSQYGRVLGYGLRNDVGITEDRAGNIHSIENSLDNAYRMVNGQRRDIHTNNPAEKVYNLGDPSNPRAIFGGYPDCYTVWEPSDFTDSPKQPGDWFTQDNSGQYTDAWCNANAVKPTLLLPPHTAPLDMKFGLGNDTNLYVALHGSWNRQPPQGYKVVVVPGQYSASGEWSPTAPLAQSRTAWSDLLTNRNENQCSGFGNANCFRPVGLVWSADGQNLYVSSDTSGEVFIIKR
As to the kind of experiment: UV-vis spectral reduction of PQQ; PMS/DCPIP assay. The assay is classed as biochemical. The following applies: holo-form; 1 mM L-fucose; 50 mM HEPES pH 7.0; 1 mM CaCl2; room temperature (spectra).

SMILES strings stand for the structures.

Regarding `C[C@@H]1OC(O)[C@@H](O)[C@H](O)[C@@H]1O` (stereo partly drawn) [L-fucose], the “UV-vis spectral reduction of PQQ; PMS/DCPIP assay” value is on record as “The addition of L-fucose resulted in the reduction of PQQ”.
